From patent US20210348164A1, “ENDOGENOUS CYTOPLASMIC ALU COMPLEMENTARY DNA IN AGE-RELATED MACULAR DEGENERATION” (University of Virginia Patent Foundation, priority 2018, published 2021)
“Also recorded” adds a separate entry of the source.

Assays:
[1] = system: Alu cDNA in ARPE-19 cells; test: Alu cDNA in ARPE-19 cells (Alu c-PCR, in situ hybridization); format: cell-based, human; settings: heat shock or DICER1 AS, in situ hybridization
Procedure: Cell culture and transfection. Primary mouse and human RPE cells were isolated as previously described (Kerur et al., 2018). All cells were maintained at 37° C. in a 5% CO2 environment. Mouse RPE cells were cultured in DMEM supplemented with 20% FBS and penicillin/streptomycin antibiotics at standard concentrations; primary human RPE cells were maintained in DMEM supplemented with 10% FBS and antibiotics. The human RPE cell line ARPE19 was cultured as previously described (Kerur et al., 2018) and maintained in DMEM-F12 containing penicillin/streptomycin, Fungizone, and gentamicin. HEK293T cells were cultured in DMEM with 10% fetal bovine serum (FBS) with 100 U/ml penicillin/streptomycin and 2 mM L-glutamine. […]
In situ hybridization. […] Visualization of fluorescein-labelled probe was performed with the TSA™ plus fluorescence system or the TSA™ plus Cy5 system (PerkinElmer). The fluorescent or Cy5 signals were detected using a Leica SP-5 or MR Nikon confocal microscope system. […]

Alu cDNA = Alu cDNA in RPE flat mounts of Casp1/4 dko mice after subretinal Alu RNA (in situ hybridization); format: in vivo, mouse; settings: subretinal Alu RNA (or Alu G25C RNA), NNRTIs at high doses
Procedure: Subretinal and intravitreous injections. Subretinal injections (1 μl for mice, 3 μl for rat) or intravitreous injections (0.5 μl for mice, 2 μl for rat) in mice or rat were performed using a 35-gauge needle (Ito Co. Fuji, Japan). In vivo transfection of Alu RNA or mutant Alu RNA (3.6-300 ng per eye); Alu complementary DNA (cDNA; 0.0036-90 ng per eye); Alu reverse sequence cDNA (3.6-90 ng per eye); or 7SL cDNA (3.6-90 ng per eye) was performed using 10% NEUROPORTER™ transfection reagent (Genlantis, San Diego, Calif., United States of America) as previously described (Kaneko et al., 2011; Tarallo et al., 2012). 3TC, TM-3TC, Cpep-3TC, Cpep, PA-4 3TC, EFV, DLV, or NVP (50 μM/1 μl or 500 μM/1 μl) were administered by intravitreous injection (Mandal et al., 2011; Nasrolahi et al., 2013). 1 μl of cholesterol-conjugated siRNAs (2 μg/μl) targeting mouse LINE1 or Luc (luciferase control; Dharmacon, Lafayette, Colo., United States of America) were subretinally injected three days prior to Alu RNA or vehicle administration. Similarly, in Oryzomys palustris, rat L1 plasmids expressing ORF1p, ORF2p, reverse transcriptase-deficient ORF2p (pORF2 (RT-)), or endonuclease deficient ORF2p (pORF2 (EN-)) were delivered via subretinal injection three days prior to administering Alu RNA or vehicle. The choice of eye for experimental versus control injection was chosen randomly. Rat L1 plasmids expressing ORF1 and ORF2 have been described previously (Kirilyuk et al., 2008). The ORF2 (EN-) construct contained mutations D207A and H232A, which, by CLUSTALW alignment, correspond to human D205A and H230A (see Feng et al., 1996) in the endonuclease domain of ORF2p. The ORF2 (RT-) construct contained mutation D703A, which, by CLUSTALW alignment, corresponds to human D702A (see Moran et al., 1996) in the reverse transcriptase domain of ORF2p.
In situ hybridization. […] Visualization of fluorescein-labelled probe was performed with the TSA™ plus fluorescence system or the TSA™ plus Cy5 system (PerkinElmer). The fluorescent or Cy5 signals were detected using a Leica SP-5 or MR Nikon confocal microscope system.

L1 reverse transcriptase = L1 reverse transcriptase (Homo sapiens, UniProt O00370); settings: Merluzzi et al., 1990; Dai et al., 2011; cited from earlier work
[2] = system: Alu RNA-induced RPE degeneration; test: Alu RNA-induced RPE degeneration in wild-type mice (fundus photography, ZO-1 flat mounts); format: in vivo, mouse; settings: WT mice; intravitreous; low (25 μmol) doses

Chain of L1 reverse transcriptase (O00370 whole entry, looked up): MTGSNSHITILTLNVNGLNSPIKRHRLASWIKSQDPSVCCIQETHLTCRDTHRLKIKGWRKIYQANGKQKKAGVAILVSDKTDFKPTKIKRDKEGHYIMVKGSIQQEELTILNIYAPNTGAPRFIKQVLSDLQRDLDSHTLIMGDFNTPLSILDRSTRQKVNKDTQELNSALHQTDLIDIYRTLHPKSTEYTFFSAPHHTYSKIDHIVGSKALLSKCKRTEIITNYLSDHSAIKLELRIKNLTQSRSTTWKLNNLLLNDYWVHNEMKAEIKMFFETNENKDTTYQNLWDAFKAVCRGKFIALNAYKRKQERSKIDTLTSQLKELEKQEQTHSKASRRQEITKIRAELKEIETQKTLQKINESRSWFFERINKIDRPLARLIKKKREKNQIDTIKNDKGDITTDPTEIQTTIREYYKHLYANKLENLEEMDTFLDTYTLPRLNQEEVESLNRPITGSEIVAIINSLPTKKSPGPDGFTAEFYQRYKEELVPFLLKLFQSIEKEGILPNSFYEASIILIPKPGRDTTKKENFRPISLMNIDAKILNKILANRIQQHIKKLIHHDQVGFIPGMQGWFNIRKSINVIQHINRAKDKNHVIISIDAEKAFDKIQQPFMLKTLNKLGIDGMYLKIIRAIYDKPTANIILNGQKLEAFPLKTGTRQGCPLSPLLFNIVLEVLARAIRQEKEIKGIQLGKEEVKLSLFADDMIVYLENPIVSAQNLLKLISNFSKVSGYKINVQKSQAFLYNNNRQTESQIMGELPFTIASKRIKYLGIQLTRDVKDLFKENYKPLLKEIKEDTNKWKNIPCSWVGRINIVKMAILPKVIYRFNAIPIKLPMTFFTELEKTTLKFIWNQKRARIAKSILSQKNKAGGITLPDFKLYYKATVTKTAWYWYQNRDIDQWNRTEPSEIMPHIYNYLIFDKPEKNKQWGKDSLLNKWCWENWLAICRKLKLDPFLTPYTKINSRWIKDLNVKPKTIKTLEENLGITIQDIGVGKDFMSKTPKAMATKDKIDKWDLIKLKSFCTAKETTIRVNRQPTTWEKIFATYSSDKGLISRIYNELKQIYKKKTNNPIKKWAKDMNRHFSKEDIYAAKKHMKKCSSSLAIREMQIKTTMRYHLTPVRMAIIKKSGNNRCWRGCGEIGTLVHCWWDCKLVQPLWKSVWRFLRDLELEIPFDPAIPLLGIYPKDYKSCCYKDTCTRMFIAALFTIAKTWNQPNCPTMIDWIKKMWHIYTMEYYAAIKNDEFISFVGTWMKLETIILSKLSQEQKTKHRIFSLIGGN

Compound	Alu cDNA induction [1]	Alu cDNA in RPE in vivo (Alu cDNA)	inhibition of L1 reverse transcriptase (L1 reverse transcriptase)	Alu RNA-induced RPE degeneration [2]
L1 siRNA: siRNA targeting L1; cholesterol-conjugated mouse L1 siRNA (SEQ ID NOs: 48 and 49) in vivo, human L1 siRNA sequences in human cells (chain 1 ACUAUUACUCUGAUACCTT; chain 2 UGUACUAAGGUCAAAUCTT; cholesterol conjugated, position not given here)	reduced Alu cDNA formation	–	–	–
O=C1Nc2ccc(Cl)cc2[C@@](C#CC2CC2)(C(F)(F)F)O1 [EFV, efavirenz]	–	prevented Alu cDNA formation in vivo; also recorded: blocked endogenous cDNA synthesis	inhibit L1 reverse transcriptase at high doses	did not block Alu RNA-induced RPE degeneration at low doses
CC(C)Nc1cccnc1N1CCN(C(=O)c2cc3cc(NS(C)(=O)=O)ccc3[nH]2)CC1 [DLV, delavirdine]	–	prevented Alu cDNA formation in vivo; also recorded: blocked endogenous cDNA synthesis	inhibit L1 reverse transcriptase at high doses	did not block Alu RNA-induced RPE degeneration at low doses
Cc1ccnc2c1NC(=O)c1cccnc1N2C1CC1 [NVP, nevirapine]	–	did not prevent Alu cDNA synthesis	does not inhibit L1 reverse transcriptase	did not prevent Alu RNA-induced RPE degeneration at low or high doses
